ChEMBL document CHEMBL2034837, “Discovery of Natural Phenols as G Protein-Coupled Receptor-35 (GPR35) Agonists” (ACS Med Chem Lett, 2012)
Calls of active or inactive are those of the source. The calls are words filed in the database; no cut-off is given here.

What was measured:
[1] = target: T1, G-protein coupled receptor 35 (Homo sapiens, UniProt Q9HC97); experiment: Agonist activity at GPR35 receptor in human HT-29 cells at 8 uM after 10 mins by dynamic mass redistribution assay in the presence of SPB05142; type: functional, cell-based
[2] = target: T1, G-protein coupled receptor 35; experiment: Agonist activity at GPR35 receptor in human U2OS cells coexpressing Gal4-VP16-TEV assessed as beta arrestin translocation after 5 hrs by beta lactamase reporter gene assay; type: functional, cell-based
[3] = target: T1, G-protein coupled receptor 35; experiment: Desensitization of GPR35 receptor in human HT-29 cells assessed as inhibition of zaprinast-induced dynamic mass redistribution after 10 mins; type: cell-based
[4] = target: T1, G-protein coupled receptor 35; experiment: Agonist activity at GPR35 receptor in human HT-29 cells after 10 mins by dynamic mass redistribution assay; type: functional, cell-based
[5] = target: T1, G-protein coupled receptor 35; experiment: Agonist activity at GPR35 receptor in human HT-29 cells assessed as shift in resonant wavelength of biosensor stimulation after 10 mins by dynamic mass redistribution assay relative to control; type: functional, cell-based
[6] = target: T1, G-protein coupled receptor 35; experiment: Agonist activity at GPR35 receptor in human U2OS cells coexpressing Gal4-VP16-TEV assessed as beta arrestin translocation after 5 hrs by beta lactamase reporter gene assay relative to control; type: functional, cell-based
[7] = target: T1, G-protein coupled receptor 35; experiment: Partial agonist activity at GPR35 receptor in human HT-29 cells after 10 mins by dynamic mass redistribution assay; type: functional, cell-based
[8] = target: T1, G-protein coupled receptor 35; experiment: Agonist activity at GPR35 receptor in human HT-29 cells at 32 uM after 10 mins by dynamic mass redistribution assay in the presence of SPB05142; type: functional, cell-based
[9] = target: T1, G-protein coupled receptor 35; experiment: Agonist activity at GPR35 receptor in human HT-29 cells at 4 uM after 10 mins by dynamic mass redistribution assay in the presence of SPB05142; type: functional, cell-based
[10] = target: T1, G-protein coupled receptor 35; experiment: Agonist activity at GPR35 receptor in human HT-29 cells at 2 uM after 10 mins by dynamic mass redistribution assay in the presence of SPB05142; type: functional, cell-based
[11] = target: T1, G-protein coupled receptor 35; experiment: Partial agonist activity at GPR35 receptor in human U2OS cells coexpressing Gal4-VP16-TEV assessed as beta arrestin translocation after 5 hrs by beta lactamase reporter gene assay; type: functional, cell-based
[12] = target: T1, G-protein coupled receptor 35; experiment: Agonist activity at GPR35 receptor in human HT-29 cells at 16 uM after 10 mins by dynamic mass redistribution assay in the presence of SPB05142; type: functional, cell-based

T1 sequence (Q9HC97 whole entry, the tested form may be a part): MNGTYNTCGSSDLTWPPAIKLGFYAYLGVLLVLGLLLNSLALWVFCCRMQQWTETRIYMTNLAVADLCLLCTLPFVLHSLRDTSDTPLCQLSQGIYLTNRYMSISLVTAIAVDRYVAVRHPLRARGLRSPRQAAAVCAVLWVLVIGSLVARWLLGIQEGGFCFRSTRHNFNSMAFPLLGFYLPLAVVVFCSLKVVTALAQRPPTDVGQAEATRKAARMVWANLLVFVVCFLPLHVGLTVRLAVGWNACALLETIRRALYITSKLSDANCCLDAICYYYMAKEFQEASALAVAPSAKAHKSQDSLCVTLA

Structure (SMILES) | Activity [1] | EC50 [2] | IC50 [3] | EC50 [4] | Efficacy [5] | Ratio [6] | Activity [7] | Activity [8] | Activity [9] | Activity [10] | Activity [3] | Activity [11] | Activity [4] | Activity [12]
N#C/C(=C\c1ccc(O)cc1)C(=O)O [alpha-CYANO-4-HYDROXYCINNAMIC ACID] | inactive | 70.7 µM | 30.4 µM | 9.8 µM | 331 picometer | 4 |  |  |  |  |  |  |  | 
Cc1c(C(=O)O)sc2c(Br)csc12 |  | 17.6 µM |  |  | 283 picometer | 13.9 |  |  |  |  |  |  |  | 
O=c1c(O)c(-c2ccc(O)c(O)c2)oc2cc(O)cc(O)c12 [QUERCETIN] |  | 5.93 µM | 15.4 µM | 8.02 µM | 40 picometer | 2.3 | Active | inactive |  |  |  |  |  | 
CC(=O)NCCc1ccc(O)c(-c2c(O)c(O)c3c(c2O)C(=O)c2c(cc(O)c(C(=O)O)c2C(=O)O)C3=O)c1 [LACCACID ACID A] |  | 51.5 µM | 0.39 µM | 0.39 µM | 263 picometer | 3.5 |  | inactive |  |  |  |  |  | 
O=c1c(O)c(-c2ccc(O)cc2O)oc2cc(O)cc(O)c12 [MORIN] | inactive | 11.2 µM | 1.6 µM | 1.33 µM | 284 picometer | 9.8 |  |  |  |  |  |  |  | 
O=C(O)c1cc(O)c(=O)c2c(O)c(O)ccc2c1 [7-DESHYDROXYPYROGALLIN-4-CARBOXYLIC ACID] |  | 12.4 µM | 0.11 µM | 0.054 µM | 233 picometer | 10.9 |  |  | inactive |  |  |  |  | 
O=c1oc2c(O)c(O)cc3c(=O)oc4c(O)c(O)cc1c4c23 [ELLAGIC ACID] |  | 2.96 µM | 0.1 µM | 0.11 µM | 319 picometer | 3.4 |  |  |  | inactive |  |  |  | 
O=C(O)c1cccnc1Nc1cccc(C(F)(F)F)c1 |  |  |  |  | 260 picometer |  |  | inactive |  |  | Dose-dependent effect | Active | Dose-dependent effect | 
O=C1C=C2CC3(O)COc4c(ccc(O)c4O)C3=C2C=C1O (stereo unspecified) [HEMATEIN] |  | 4.7 µM | 30.4 µM | 11.1 µM | 391 picometer | 2.1 |  |  |  |  |  |  |  | inactive
CCCOc1ccccc1-c1nc2[nH]nnc2c(=O)[nH]1 |  |  |  |  | 269 picometer |  |  |  |  |  |  |  |  | 
CCCCCc1c2c(cc(O)c1C(=O)O)OC(=O)c1c(cc(OC)cc1C(=O)CCCC)O2 [LOBARIC ACID] |  | 17.6 µM | 4.54 µM | 2.39 µM | 317 picometer | 2 |  |  |  |  |  |  |  | inactive
O=c1cc(-c2ccc(O)c(O)c2)oc2cc(O)cc(O)c12 [LUTEOLIN] |  | 3.2 µM | 18.6 µM | 7.24 µM | 68 picometer | 1.5 | Active | inactive |  |  |  | Active |  | 
O=c1c(O)c(-c2cc(O)c(O)c(O)c2)oc2cc(O)cc(O)c12 [MYRICETIN] | inactive | 14.7 µM | 2.12 µM | 3.02 µM | 224 picometer | 9.2 | Active |  |  |  |  |  |  | 
CC(C)=CCC1=C(O)C(=O)c2ccccc2C1=O [LAPACHOL] | inactive | 47.9 µM | 4.66 µM | 2.84 µM | 328 picometer | 8.7 |  |  |  |  |  |  |  | 
O=c1cc(-c2ccccc2)oc2cc(O)c(O)c(O)c12 [BAICALEIN] |  | 22.7 µM | 28.2 µM | 10.3 µM | 248 picometer | 2.1 |  | inactive |  |  |  | Active |  | 
